Laboratory results: ChEMBL document CHEMBL3507680, “University of Dundee, Gates Library screen for HepG2 cell viability”

Assay: Human HepG2 cell viability assay in 384 well format
Format: toxicity, cell-based
Design: dose 125 nL, time 70.5 hour; cytotoxicity at 70.5 h: concentration not given beside the values
Conditions: HepG2 cells, read-out: Inhibition

| SMILES | cytotoxicity at 70.5 h [%] |
| --- | --- |
| CC(c1ccncc1)N1Cc2nc(N(C)C)ncc2C1=O (centres undefined) | -2.18 |
| CC(C)Cc1noc(C2CCN(C(=O)c3cccs3)CC2)n1 | -0.0683 |
| Cc1nn(C)c2cnn(CC(=O)NCc3ccc4c(c3)OCO4)c12 | -3.63 |
| Cc1nn(C)c(C)c1CN1CCN(CC2(O)CCCN(C)C2)CC1 (centres undefined) | -10.5 |
| Cc1nn(C)c2cnn(Cc3ccc(C(=O)NC4CC4)cc3)c12 | -5.97 |
| Cc1nn(C)c2cnn(CC(=O)NCc3ccccc3F)c12 | -8.04 |
| Cc1nn(C)c2cnn(CC(=O)NCc3cccs3)c12 | -8.64 |
| CCN1CCCC(O)(CN(C)Cc2ccccc2F)C1 (centres undefined) | -9.61 |
| Cc1cc(C)n(CCC(=O)N2CCC(c3nc(C)no3)CC2)n1 | -12.5 |
| Cc1noc(C2CCCN(C(=O)c3cc(-c4ccccc4)on3)C2)n1 (centres undefined) | -20.7 |
| Cc1nn(C)c2cn(C(C)C(=O)NCc3cccc(F)c3)nc12 (centres undefined) | -3 |
| Cc1cccc2c1ccn2CC(=O)O | 6.19 |
| CC(O)c1cccc(Nc2nc(NCCO)c3ccccc3n2)c1 (centres undefined) | -5.65 |
| Cc1cc2[nH]c(O)nc2cc1NCc1ccc(F)cc1 | -10.2 |
| O=c1c2cnc(N3CCCCC3)nc2ccn1Cc1ccco1 | -7.45 |
| Cc1nc(N2CCCC2)ncc1-c1cc(O)nc(NCC2CCCO2)n1 (centres undefined) | -5.1 |
| Cc1nn(C)c2cn(CC(=O)N3CCN(c4ccccc4)CC3)nc12 | 7.34 |
| CCn1nccc1CNC(=O)Cn1cc2c(n1)c(C)nn2C(C)C | -9.07 |
| CCN1CCCC(O)(CNCc2ccccc2F)C1 (centres undefined) | 12.4 |
| CC(c1ccccc1)N1Cc2nc(N(C)C)ncc2C1=O (centres undefined) | 49 |
| CN1CCC(N2Cc3nc(N)ncc3C2=O)CC1 | -11.6 |

| SMILES | cytotoxicity at 70.5 h [%] |
| --- | --- |
| CN1CCN(c2nsc(-c3ccccc3)c2C#N)CC1 | -2.35 |
| CCn1nc(C)c(CNC(=O)c2nnc3ccccc3n2)c1C | 0.73 |
| O=C(NCCn1cccn1)c1nnc2ccccc2n1 | 19.4 |
| N#Cc1c(N2CCCCC2)nsc1-c1cccnc1 | 25 |
| CN1CCN(C(=O)c2nnc3ccc(Cl)cc3n2)CC1 | -10.9 |
| Cc1ccc2nnc(C(=O)NCC3CCCC3)nc2c1 | -0.847 |
| CC(C)CN1Cc2nc(N3CCCC(C)C3)ncc2C1=O (centres undefined) | -9.32 |
| CNc1ncc2c(n1)CN(CCc1ccc(Cl)cc1)C2=O | -5.88 |
| CCN1CCN(c2ncc3c(n2)CN(c2cnn(CC)c2)C3=O)CC1 | -6.35 |
| CCCN1Cc2nc(N3CCCC3)ncc2C1=O | -5.27 |
| COC(=O)C1CCN(C(=O)c2nnc3ccc(C)cc3n2)CC1 | -6.57 |
| Cc1ccc2nnc(C(=O)NCCCn3cccn3)nc2c1 | 6.08 |
| Cc1nn(C)c(C)c1CN(C)C(=O)c1cc(NC(=O)C2CC2)n(C)n1 | -8.63 |
| Cn1nc(C(=O)NC2CC(C)(C)NC(C)(C)C2)cc1NC(=O)C1CC1 | -8.61 |
| Cc1nc2c(N3CCN(CCO)CC3)nc(N)nc2n1C | 0.799 |
| Cc1nc2c(N(C)Cc3ccnn3C)nc(N)nc2n1C | 0.962 |
| CCn1nc(C)c(NC(=O)CCn2ncc3cc(C)ccc32)c1C | 13.9 |
| CN(C)CCNC(=O)CCn1ncc2c(Cl)cccc21 | -4.46 |
| CCn1cc(CNC(=O)CCn2ncc3c(Cl)cccc32)cn1 | 17.5 |
| Cc1cc(O)nc(C2CN(CC3(O)CCOCC3)CCO2)n1 (centres undefined) | 8.89 |
| CC(=O)N[C@@H]1CN(C(=O)c2cnc3ccccc3c2)C[C@H]1O | 10.7 |

| SMILES | cytotoxicity at 70.5 h [%] |
| --- | --- |
| O=C1CO[C@H]2CN(Cc3cccc(F)c3F)C[C@@H]2N1C1CCOCC1 | 41.9 |
| NC(=O)CN1CCC2(CC1)C[C@@H](O)[C@H](c1ccccc1)NC2=O | -0.832 |
| O=C(O)C1CN(c2cccc(Cl)c2)CCO1 (centres undefined) | -4.2 |
| Cc1cn[nH]c1C1COCCN1S(=O)(=O)c1cn[nH]c1 (centres undefined) | -0.517 |
| COc1cccc(CN2CCOC(c3cnccn3)C2)c1F (centres undefined) | -8.48 |
| Cc1noc(C)c1C(=O)N1CCCCC1c1cc(C)n2ccnc2n1 (centres undefined) | -10.1 |
| CCCn1nccc1-c1cc(C2CCN(S(C)(=O)=O)CC2)nc(C)n1 | -6.18 |
| Cc1cc(C2CCCN(S(=O)(=O)c3cn[nH]c3)C2)ccn1 (centres undefined) | -7.27 |
| COCC(=O)N1CCCC1c1cccc(Nc2ncc(C)s2)n1 (centres undefined) | 0.0728 |
| CN1CCOC(C)(C(=O)N2CCSCC2)C1 (centres undefined) | -4.76 |
| CNC(=O)C1CN(C)CCN(CCCOc2ccccc2F)C1 (centres undefined) | -3.84 |
| O=C(CCN1CCc2ccccc21)N1C[C@@H](O)[C@H](N2CCCC2)C1 | -7.06 |
| CC(=O)N1CCc2nnc(C3CCCN3CC3CCCCC3)n2CC1 (centres undefined) | -6.06 |
| O=C(NCCNC1CCCCC1)c1cccs1 | -6.1 |
| Cc1cc(C(=O)NCc2ccc(F)cc2)nc(C2CCCN2C)n1 (centres undefined) | -2.73 |
| CN(C)c1cc(C2CCCN2C(=O)c2ccc(=O)n(C)c2)ccn1 (centres undefined) | -7.99 |
| COc1ccc(-c2cnc(N(C)C)nc2C2CN(C(C)=O)CCO2)cc1 (centres undefined) | -11.5 |
| Fc1ccc(-c2nccnc2C2CCCNC2)cc1 (centres undefined) | -3.79 |
| Fc1cccc(-c2nccnc2C2CCCNC2)c1 (centres undefined) | -11.7 |
| Cc1nccc(C2CCCCN2Cc2cccc(F)c2)n1 (centres undefined) | -12.9 |
| CS(=O)(=O)N1CC(c2n[nH]c3ncccc23)C1 | -1.49 |

| SMILES | cytotoxicity at 70.5 h [%] |
| --- | --- |
| CS(=O)(=O)c1cn[nH]c1C1CCCN(C(=O)CN2CCOCC2)C1 (centres undefined) | -5.31 |
| CN(C)c1nccc(C2CCCN(C(=O)CO)C2)n1 (centres undefined) | -7.31 |
| COc1ccc(C(=O)N2C[C@@H](c3ccccc3)[C@@H]3NCCCC[C@@H]32)cc1 | -8.54 |
| c1cc(N2CCOCC(Cc3ccc4[nH]ccc4c3)C2)ncn1 (centres undefined) | -8.81 |
| Cc1cc(N2CCOCC(Cc3ccc4[nH]ccc4c3)C2)ncn1 (centres undefined) | -9.7 |
| Cc1sc2c(C3CCCN(C)C3)nc(C)n2c1C (centres undefined) | 24.3 |
| CC(=O)N1CC(c2ccnc(Nc3ccc(C)cn3)n2)C1 | -4.62 |
| Cc1cc(C2CCN(S(=O)(=O)c3cn(C)cn3)CC2)ccn1 | -9.79 |
| COc1cccc(-c2cnc(C3CCNCC3)cn2)c1 | -4.54 |
| Cn1nccc1C(=O)N1CCOC(Cc2ccc(Cl)cc2)C1 (centres undefined) | 0.563 |
| Cc1cncc(C2CCN(C(=O)CCc3ccnn3C)CC2)n1 | 23.6 |
| Cc1[nH]c2ccc(C(=O)N3C[C@@H](O)[C@H](N4CCOCC4)C3)cc2c1C | -1.3 |
| CCN(Cc1ccncc1)CC1(O)CCN(C(=O)c2cccc(C)c2)C1 (centres undefined) | -4.75 |
| Nc1nccnc1C1CN(C(=O)c2ccnnc2)CCO1 (centres undefined) | -6.55 |
| O=C(N[C@@H]1CCC[C@@H](N2CCCC2)[C@@H]1O)c1cnn2cccnc12 | -1.75 |
| O=C(N[C@@H]1CC[C@@H](N2CCOCC2)[C@@H]1O)c1cnn2cccnc12 | 21.8 |
| Cc1nc2ccccn2c1CC(=O)N[C@@H]1CC[C@@H](N2CCCC2)[C@@H]1O | -5.16 |
| Cc1cc(C(=O)N2CCc3nc(C4CCCCN4)ncc3C2)cs1 (centres undefined) | -7.25 |
| Fc1ccccc1OCCc1cc(C2CNCCO2)n[nH]1 (centres undefined) | -5.54 |
| Cc1ccc(CN(CCCN2CCOCC2)Cc2cncn2C)o1 | -4.09 |
| Cc1nc(C2CCN(Cc3ncc[nH]3)CC2)no1 | 19.7 |
